Source: patent US20020111274A1, “1-alkyl-3-[1-(substituted phenyl) benzotriazol-6-yl] uracils” (BASF Aktiengesellschaft, priority 2000, published 2002)

Columns and labels:
Design in all cases: scale not given here
ABUTH Velvetleaf [1] = test: Postemergence herbicidal evaluation, ABUTH; format: in vivo, Abutilon theophrasti, Medic.; details: postemergence spray, rated about two-three weeks after treatment
Procedure, shortened: (§1)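 Two-week-old seedlings sprayed postemergence with compound in 80/20 acetone/water plus 1.0% methylated seed oil, at about 0.006–0.400 kg/ha, through a nozzle at 40 psi. Plants kept under greenhouse conditions and visually rated about two–three weeks after treatment; ratings from repeat tests averaged.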

AMBEL Ragweed, Common [2] = test: Postemergence herbicidal evaluation, AMBEL; format: in vivo, Ambrosia artemisifolia, L.; details: postemergence spray, rated about two-three weeks after treatment
Procedure, shortened: as §1

CASOB Sicklepod [3] = test: Postemergence herbicidal evaluation, CASOB; format: in vivo, Cassia obtusifolia, L.; details: postemergence spray, rated about two-three weeks after treatment
Procedure, shortened: as §1

[4] = system: CHEAL Lambsquarters, Common; test: Postemergence herbicidal evaluation, CHEAL; format: in vivo, Chenopodium album, L.; details: postemergence spray, rated about two-three weeks after treatment
Procedure, shortened: as §1

ECHOG Barnyardgrass [5] = test: Postemergence herbicidal evaluation, ECHOG; format: in vivo, Echinochloa crus-galli, (L.) Beau; details: postemergence spray, rated about two-three weeks after treatment
Procedure, shortened: as §1

GALAP Galium [6] = test: Postemergence herbicidal evaluation, GALAP; format: in vivo, Galium aparine; details: postemergence spray, rated about two-three weeks after treatment
Procedure, shortened: as §1

[7] = system: IPOHE Morningglory, Ivyleaf; test: Postemergence herbicidal evaluation, IPOHE; format: in vivo, Ipomoea hederacea, (L.) Jacq.; details: postemergence spray, rated about two-three weeks after treatment
Procedure, shortened: as §1

SETVI Foxtail, Green [8] = test: Postemergence herbicidal evaluation, SETVI; format: in vivo, Setaria viridis, (L.) Beau; details: postemergence spray, rated about two-three weeks after treatment
Procedure, shortened: as §1

GLXMAW Soybean, Williams [9] = test: Postemergence herbicidal evaluation, GLXMAW; format: in vivo, Glycine max, (L.) Merr. cv Williams; details: postemergence spray, rated about two-three weeks after treatment
Procedure, shortened: as §1

[10] = system: TRZAWR Wheat, Winter, cv Riband; test: Postemergence herbicidal evaluation, TRZAWR; format: in vivo, Triticum aestivum; details: postemergence spray, rated about two-three weeks after treatment
Procedure, shortened: as §1

ORYSAT Rice, Tebonnet [11] = test: Postemergence herbicidal evaluation, ORYSAT; format: in vivo, Oryza sativa, (L.); details: postemergence spray, rated about two-three weeks after treatment
Procedure, shortened: as §1

ZEAMX Corn, Field [12] = test: Postemergence herbicidal evaluation, ZEAMX; format: in vivo, Zea mays, L. (Sammel-Bezeichnung); details: postemergence spray, rated about two-three weeks after treatment
Procedure, shortened: as §1

ABUTH Velvetleaf [13] = test: Preemergence herbicidal evaluation, ABUTH; format: in vivo, Abutilon theophrasti, Medic.; details: preemergence
Procedure, shortened: (§2)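 Preemergence soil spray: aqueous acetone, ~0.013–0.800 kg/ha, applied right after sowing (seed/potting-soil mix over ~1 in soil). Greenhouse, routine watering. Scored 4–5 wk post-treatment on a rating scale.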

AMBEL Ragweed, Common [14] = test: Preemergence herbicidal evaluation, AMBEL; format: in vivo, Ambrosia artemisifolia, L.; details: preemergence
Procedure, shortened: as §2

CASOB Sicklepod [15] = test: Preemergence herbicidal evaluation, CASOB; format: in vivo, Cassia obtusifolia, L.; details: preemergence
Procedure, shortened: as §2

[16] = system: CHEAL Lambsquarters, Common; test: Preemergence herbicidal evaluation, CHEAL; format: in vivo, Chenopodium album, L.; details: preemergence
Procedure, shortened: as §2

ECHOG Barnyardgrass [17] = test: Preemergence herbicidal evaluation, ECHOG; format: in vivo, Echinochloa crus-galli, (L.) Beau; details: preemergence
Procedure, shortened: as §2

GALAP Galium [18] = test: Preemergence herbicidal evaluation, GALAP; format: in vivo, Galium aparine; details: preemergence
Procedure, shortened: as §2

[19] = system: IPOHE Morningglory, Ivyleaf; test: Preemergence herbicidal evaluation, IPOHE; format: in vivo, Ipomoea hederacea, (L.) Jacq.; details: preemergence
Procedure, shortened: as §2

SETVI Foxtail, Green [20] = test: Preemergence herbicidal evaluation, SETVI; format: in vivo, Setaria viridis, (L.) Beau; details: preemergence
Procedure, shortened: as §2

GLXMAW Soybean, Williams [21] = test: Preemergence herbicidal evaluation, GLXMAW; format: in vivo, Glycine max, (L.) Merr. cv Williams; details: preemergence
Procedure, shortened: as §2

[22] = system: TRZAWR Wheat, Winter, cv Riband; test: Preemergence herbicidal evaluation, TRZAWR; format: in vivo, Triticum aestivum; details: preemergence
Procedure, shortened: as §2

ORYSAT Rice, Tebonnet [23] = test: Preemergence herbicidal evaluation, ORYSAT; format: in vivo, Oryza sativa, (L.); details: preemergence
Procedure, shortened: as §2

ZEAMX Corn, Field [24] = test: Preemergence herbicidal evaluation, ZEAMX; format: in vivo, Zea mays, L. (Sammel-Bezeichnung); details: preemergence
Procedure, shortened: as §2

Compound: C=CCOc1ccc(-n2nnc3cc(F)c(-n4c(=O)cc(C(F)(F)F)n(C)c4=O)cc32)c(C)c1 [Example 43]
- Postemergence herbicidal rating ABUTH (ABUTH Velvetleaf [1]; 0.008 kg/ha): 9.0
- Postemergence herbicidal rating ABUTH (ABUTH Velvetleaf [1]; 0.016 kg/ha): 9.0
- Postemergence herbicidal rating ABUTH (ABUTH Velvetleaf [1]; 0.032 kg/ha): 9.0
- Postemergence herbicidal rating ABUTH (ABUTH Velvetleaf [1]; 0.062 kg/ha): 9.0
- Postemergence herbicidal rating AMBEL (AMBEL Ragweed, Common [2]; 0.008 kg/ha): 1.0
- Postemergence herbicidal rating AMBEL (AMBEL Ragweed, Common [2]; 0.016 kg/ha): 7.0
- Postemergence herbicidal rating AMBEL (AMBEL Ragweed, Common [2]; 0.032 kg/ha): 7.0
- Postemergence herbicidal rating AMBEL (AMBEL Ragweed, Common [2]; 0.062 kg/ha): 9.0
- Postemergence herbicidal rating CASOB (CASOB Sicklepod [3]; 0.008 kg/ha): 0.0
- Postemergence herbicidal rating CASOB (CASOB Sicklepod [3]; 0.016 kg/ha): 0.0
- Postemergence herbicidal rating CASOB (CASOB Sicklepod [3]; 0.032 kg/ha): 0.0
- Postemergence herbicidal rating CASOB (CASOB Sicklepod [3]; 0.062 kg/ha): 3.0
- Postemergence herbicidal rating CHEAL ([4]; 0.008 kg/ha): 0.0
- Postemergence herbicidal rating CHEAL ([4]; 0.016 kg/ha): 3.0
- Postemergence herbicidal rating CHEAL ([4]; 0.032 kg/ha): 3.0
- Postemergence herbicidal rating CHEAL ([4]; 0.062 kg/ha): 4.0
- Postemergence herbicidal rating ECHCG (ECHOG Barnyardgrass [5]; 0.008 kg/ha): 1.0
- Postemergence herbicidal rating ECHCG (ECHOG Barnyardgrass [5]; 0.016 kg/ha): 1.0
- Postemergence herbicidal rating ECHCG (ECHOG Barnyardgrass [5]; 0.032 kg/ha): 1.0
- Postemergence herbicidal rating ECHCG (ECHOG Barnyardgrass [5]; 0.062 kg/ha): 2.0
- Postemergence herbicidal rating GALAP (GALAP Galium [6]; 0.008 kg/ha): 0.0
- Postemergence herbicidal rating GALAP (GALAP Galium [6]; 0.016 kg/ha): 0.0
- Postemergence herbicidal rating GALAP (GALAP Galium [6]; 0.032 kg/ha): 1.0
- Postemergence herbicidal rating GALAP (GALAP Galium [6]; 0.062 kg/ha): 1.0
- Postemergence herbicidal rating IPOHE ([7]; 0.008 kg/ha): 9.0
- Postemergence herbicidal rating IPOHE ([7]; 0.016 kg/ha): 9.0
- Postemergence herbicidal rating IPOHE ([7]; 0.032 kg/ha): 9.0
- Postemergence herbicidal rating IPOHE ([7]; 0.062 kg/ha): 9.0
- Postemergence herbicidal rating SETVI (SETVI Foxtail, Green [8]; 0.008 kg/ha): 0.0
- Postemergence herbicidal rating SETVI (SETVI Foxtail, Green [8]; 0.016 kg/ha): 1.0
- Postemergence herbicidal rating SETVI (SETVI Foxtail, Green [8]; 0.032 kg/ha): 9.0
- Postemergence herbicidal rating SETVI (SETVI Foxtail, Green [8]; 0.062 kg/ha): 9.0
- Postemergence herbicidal rating GLXMAW (GLXMAW Soybean, Williams [9]; 0.008 kg/ha): 5.0
- Postemergence herbicidal rating GLXMAW (GLXMAW Soybean, Williams [9]; 0.016 kg/ha): 5.0
- Postemergence herbicidal rating GLXMAW (GLXMAW Soybean, Williams [9]; 0.032 kg/ha): 5.5
- Postemergence herbicidal rating GLXMAW (GLXMAW Soybean, Williams [9]; 0.062 kg/ha): 5.5
- Postemergence herbicidal rating TRZAWR ([10]; 0.008 kg/ha): 3.0
- Postemergence herbicidal rating TRZAWR ([10]; 0.016 kg/ha): 3.0
- Postemergence herbicidal rating TRZAWR ([10]; 0.032 kg/ha): 3.0
- Postemergence herbicidal rating TRZAWR ([10]; 0.062 kg/ha): 3.0
- Postemergence herbicidal rating ORYSAT (ORYSAT Rice, Tebonnet [11]; 0.008 kg/ha): 2.5
- Postemergence herbicidal rating ORYSAT (ORYSAT Rice, Tebonnet [11]; 0.016 kg/ha): 2.0
- Postemergence herbicidal rating ORYSAT (ORYSAT Rice, Tebonnet [11]; 0.032 kg/ha): 2.0
- Postemergence herbicidal rating ORYSAT (ORYSAT Rice, Tebonnet [11]; 0.062 kg/ha): 3.0
- Postemergence herbicidal rating ZEAMX (ZEAMX Corn, Field [12]; 0.008 kg/ha): 4.0
- Postemergence herbicidal rating ZEAMX (ZEAMX Corn, Field [12]; 0.016 kg/ha): 5.0
- Postemergence herbicidal rating ZEAMX (ZEAMX Corn, Field [12]; 0.032 kg/ha): 5.0
- Postemergence herbicidal rating ZEAMX (ZEAMX Corn, Field [12]; 0.062 kg/ha): 5.0
- ABUTH herbicidal rating (ABUTH Velvetleaf [13]; rate 0.016 kg/ha): 0.0
- ABUTH herbicidal rating (ABUTH Velvetleaf [13]; rate 0.032 kg/ha): 1.0
- ABUTH herbicidal rating (ABUTH Velvetleaf [13]; rate 0.062 kg/ha): 9.0
- ABUTH herbicidal rating (ABUTH Velvetleaf [13]; rate 0.125 kg/ha): 8.0
- AMBEL herbicidal rating (AMBEL Ragweed, Common [14]; rate 0.016 kg/ha): 0.0
- AMBEL herbicidal rating (AMBEL Ragweed, Common [14]; rate 0.032 kg/ha): 0.0
- AMBEL herbicidal rating (AMBEL Ragweed, Common [14]; rate 0.062 kg/ha): 0.0
- AMBEL herbicidal rating (AMBEL Ragweed, Common [14]; rate 0.125 kg/ha): 0.0
- CASOB herbicidal rating (CASOB Sicklepod [15]; rate 0.016 kg/ha): 0.0
- CASOB herbicidal rating (CASOB Sicklepod [15]; rate 0.032 kg/ha): 0.0
- CASOB herbicidal rating (CASOB Sicklepod [15]; rate 0.062 kg/ha): 0.0
- CASOB herbicidal rating (CASOB Sicklepod [15]; rate 0.125 kg/ha): 0.0
- CHEAL herbicidal rating ([16]; rate 0.016 kg/ha): 9.0
- CHEAL herbicidal rating ([16]; rate 0.032 kg/ha): 9.0
- CHEAL herbicidal rating ([16]; rate 0.062 kg/ha): 9.0
- CHEAL herbicidal rating ([16]; rate 0.125 kg/ha): 9.0
- ECHCG herbicidal rating (ECHOG Barnyardgrass [17]; rate 0.016 kg/ha): 0.0
- ECHCG herbicidal rating (ECHOG Barnyardgrass [17]; rate 0.032 kg/ha): 0.0
- ECHCG herbicidal rating (ECHOG Barnyardgrass [17]; rate 0.062 kg/ha): 0.0
- ECHCG herbicidal rating (ECHOG Barnyardgrass [17]; rate 0.125 kg/ha): 1.0
- GALAP herbicidal rating (GALAP Galium [18]; rate 0.016 kg/ha): 0.0
- GALAP herbicidal rating (GALAP Galium [18]; rate 0.032 kg/ha): 0.0
- GALAP herbicidal rating (GALAP Galium [18]; rate 0.062 kg/ha): 0.0
- GALAP herbicidal rating (GALAP Galium [18]; rate 0.125 kg/ha): 0.0
- IPOHE herbicidal rating ([19]; rate 0.016 kg/ha): 0.0
- IPOHE herbicidal rating ([19]; rate 0.032 kg/ha): 0.0
- IPOHE herbicidal rating ([19]; rate 0.062 kg/ha): 0.0
- IPOHE herbicidal rating ([19]; rate 0.125 kg/ha): 0.0
- SETVI herbicidal rating (SETVI Foxtail, Green [20]; rate 0.016 kg/ha): 0.0
- SETVI herbicidal rating (SETVI Foxtail, Green [20]; rate 0.032 kg/ha): 1.0
- SETVI herbicidal rating (SETVI Foxtail, Green [20]; rate 0.062 kg/ha): 4.0
- SETVI herbicidal rating (SETVI Foxtail, Green [20]; rate 0.125 kg/ha): 7.0
- GLXMAW herbicidal rating (GLXMAW Soybean, Williams [21]; rate 0.016 kg/ha): 1.0
- GLXMAW herbicidal rating (GLXMAW Soybean, Williams [21]; rate 0.032 kg/ha): 1.0
- GLXMAW herbicidal rating (GLXMAW Soybean, Williams [21]; rate 0.062 kg/ha): 0.0
- GLXMAW herbicidal rating (GLXMAW Soybean, Williams [21]; rate 0.125 kg/ha): 1.0
- TRZAWR herbicidal rating ([22]; rate 0.016 kg/ha): 0.0
- TRZAWR herbicidal rating ([22]; rate 0.032 kg/ha): 0.0
- TRZAWR herbicidal rating ([22]; rate 0.062 kg/ha): 0.0
- TRZAWR herbicidal rating ([22]; rate 0.125 kg/ha): 1.0
- ORYSAT herbicidal rating (ORYSAT Rice, Tebonnet [23]; rate 0.016 kg/ha): 0.0
- ORYSAT herbicidal rating (ORYSAT Rice, Tebonnet [23]; rate 0.032 kg/ha): 0.0
- ORYSAT herbicidal rating (ORYSAT Rice, Tebonnet [23]; rate 0.062 kg/ha): 0.0
- ORYSAT herbicidal rating (ORYSAT Rice, Tebonnet [23]; rate 0.125 kg/ha): 0.0
- ZEAMX herbicidal rating (ZEAMX Corn, Field [24]; rate 0.016 kg/ha): 0.0
- ZEAMX herbicidal rating (ZEAMX Corn, Field [24]; rate 0.032 kg/ha): 0.0
- ZEAMX herbicidal rating (ZEAMX Corn, Field [24]; rate 0.062 kg/ha): 0.0
- ZEAMX herbicidal rating (ZEAMX Corn, Field [24]; rate 0.125 kg/ha): 2.0
